We go through 1 molecule from patent publication EP0073390A1, “Combination of active substances from kitasamycine and quinoxaline-di-N oxides” (BAYER AG, priority 1981, dated 1983).

Experiment [1] has as its system Ferkel. Put plainly: Feeding trial with piglets, Beispiel 2 (weight gain, feed conversion, back fat thickness by ultrasound). Format: in vivo. From the text: a) Tiercharakteristik und Futter
Die Ferkel wurden zu Versuchbeginn und in wöchentlichen oder vierzehntägigen Abständen bis zum Versuchsende gewogen.
Futtermenge und Mortalität wurden täglich notiert.
Die Rückenfettstärke wurde per Ultraschall am Versuchsende gemessen und auf 75 kg Lebendgewicht korrigiert.

Experiment [2] deals with Ferkel. Put plainly: Feeding trial with piglets, Beispiel 1 (daily weight gain and feed conversion). Format: in vivo. The source says:
a) Tier-Charakteristik und Futter
• a1) Ferkel • a2) Anzahl 30 • a3) Zucht große weiße Landrasse Kreuzungszucht • a4) Geschlecht männlich • a5) Alter etwa 8 bis 14 Wochen • a6) Gewicht 17,5 bis 45 kg • a7) Zustand gut • a8) Futter [formula]
Ingredientien: • Weizen, Gerste, Hirse, Kleie, Fleischmehl, Sojabohnenmehl, Baumwollsamenmehl, Sonnenblumensamenmehl, Lysin, Salz, Kalkstein, 2RO, MnO, Kupfer- und Eisensulfat, Kaliumjodid, Vitamine A, D, E, K, B/2, Niazin, Pantothensäure.
Die Behandlung der Tiere wurde in 5 Behandlungsgruppen durchgeführt. Das Anfangsgewicht für jede Gruppe war gleich.
Die Ferkel wurden […] gewogen. Es wurde die tägliche Gewichtszunahme und Futterverwertung bestimmt. Wöchentliches Wiegen und individuelle Futteraufnahme wurden notiert.

The structures appear in SMILES notation.

`Cc1c(C(=O)NCCO)[n+]([O-])c2ccccc2[n+]1[O-]` [d1)]: the Futterverwertung with Ferkel [1] (40 kg bis 75 kg) is 3,10 g/g; in the experiment on Ferkel [1] (Beginn bis 40 kg), 2,30 g/g; with Ferkel [1] (Beginn bis Ende), 2,74 g/g. Also, the Gewichtszunahme in the experiment with Ferkel [1] (40 kg bis Ende) is 641 g/Tag; in the experiment with Ferkel [1] (Beginn bis 40 kg), 499 g/Tag; in the experiment on Ferkel [1] (Beginn bis Ende), 573 g/Tag. Also, in the experiment with Ferkel [2] (Beispiel 1, Ferkel, male, about 8 to 14 weeks, 17,5 bis 45 kg, Konzentration (ppm): d1) 50, d2) 50, d3) 25:25, d4) 12,5:12,5, Kontrolle 537), the “Durchschnittliche tägliche Gewichtszunahme” value came to 593 g/Tag. In addition, in the experiment with Ferkel [2] (Beispiel 1; Ferkel; groups e1)-e4) correspond to d1)-d4); concentration column printed empty; e5) (presumably control) 2,72), the “Durchschnittliches Futterverwertungsverhältnis” value was 2,52 g/g.
